Results published in patent publication US20090238808A1, “Process for the identification of novel enzyme interacting compounds” (priority 2005, published 2009).

What was measured:
Experiment in all cases: In-lysate competition binding with kinobeads, Jurkat lysate, iTRAQ MS, relative intensity of identified proteins (Table 22)
Settings in all cases: DMSO control = 1.0
[1] = biological target: T1, proteins captured on kinobeads from Jurkat cell lysate (Homo sapiens, UniProt P16083)
T1 construct: endogenous in cells; host or cells: Jurkat clone E6-1 lysate
Procedure: (§1) This example illustrates competition binding in cell lysates (see particularly the third aspect of the invention). A test compound, Bisindolylmaleimide VIII (Bis VIII, a well known kinase inhibitor; Davies et al., 2000. Specificity and mechanism of action of some commonly used protein kinase inhibitors. Biochemical Journal 351 (Pt 1): 95-105) was added to a cell lysate thereby allowing the test compound to bind to the target proteins in the lysate. Then the lysate was contacted with the kinobeads affinity matrix to capture remaining free target proteins. The proteins bound to the kinobeads matrix were then eluted with detergent-containing buffer, separated on a SDS-polyacryamide gel and analyzed by immunodetection (Western blots) or mass spectrometry detection.
(§2) For the quantitative detection of proteins by mass spectrometry proteins were eluted from the affinity matrix and subsequently separated by SDS-Polyacrylamide gel elecrophoresis. Suitable gel areas were cut out and subjected to in-gel proteolytic digestion with trypsin.
(§3) Four tryptic digest samples (corresponding to three different Bis VIII concentrations in the lysate and one DMSO control) were labeled with ITRAQ reagents and the combined samples were analyzed in a single LC-MS/MS mass spectrometry analysis followed by peak quantification in the MS/MS spectrum (Ross et al., 2004. Multiplexed protein quantitation in Saccharomyces cerevisiae using amine-reactive isobaric tagging reagents. Mol. Cell. Proteomics 3(12): 1154-1169). […] Binding curves for individual kinases are shown (FIG. 5). The relative intensity 50 (RI50) values representing the affinity of kinase-compound pairs are similar to IC50 values reported by kinase enzyme assays (Davies et al., 2000. Specificity and mechanism of action of some commonly used protein kinase inhibitors. Biochemical Journal 351 (Pt 1): 95-105).
(§4) Aliqots of Jurkat lysate (10 mg protein) were incubated with different Bis VIII concentrations for one hour at 4° C. (0.025 μM, 0.074 μM, 0.22 μM, 0.67 μM, 2.0 μM and 6.0 μM final concentration of Bis VIII). To this end Bis VIII solutions were prepared in 100% DMSO as solvent that corresponded to 200 fold desired final Bis VIII concentration (Bis VIII from Alexis Biochemicals cat. number ALX 270-056). Five μl of these solutions were added to 1 ml of lysate resulting in the indicated final concentrations. For a control experiment 5 μl of DMSO without Bis VIII were used.
(§5) To each preincubated lysate sample 40 μl of kinobeads (see example 1) were added and incubated for one hour at 4° C. During the incubation the tubes were rotated on an end-over-end shaker (Roto Shake Genie, Scientific Industries Inc.). Beads were collected by centrifugation, transfered to Mobicol-columns (MoBiTech 10055) and washed with 10 ml 1×DP buffer containing 0.4% NP40 detergent, followed by a wash with 5 ml 1×DP buffer with 0.2% NP40. To elute the bound proteins, 100 μl 2×SDS sample buffer was added, the column was heated for 30 minutes at 50° C. and the eluate was transferred to a microfuge tube by centrifugation. Proteins were then separated by SDS-Polyacrylamide electrophoresis (SDS-PAGE). The composition and preparation of buffers is described in example 2.
(§6) The peptide extracts of samples treated with different concentrations of the test compound (0.074 μM, 0.22 μM and 0.67 μM Bis VIII) and the solvent control (0.5% DMSO) were treated with different isomers of the isobaric tagging reagent (iTRAQ Reagents Multiplex Kit, part number 4352135, Applied Biosystems, Foster City, Calif., USA). The iTRAQ reagents are a set of multiplexed, amine-specific, stable isotope reagents that can label all peptides in up to four different biological samples enabling simultaneous identification and quantitation of peptides. The iTRAQ reagents were used according to instructions provided by the manufacturer. […]

[2] = biological target: T2, proteins captured on kinobeads from Jurkat cell lysate (Homo sapiens, UniProt Q96GD4)
T2 construct: endogenous in cells; host or cells: Jurkat clone E6-1 lysate
Procedure: as §1, §2, §3, §4, §5, §6

[3] = biological target: T3, proteins captured on kinobeads from Jurkat cell lysate (Homo sapiens, UniProt Q2M2I8)
T3 construct: endogenous in cells; host or cells: Jurkat clone E6-1 lysate
Procedure: as §1, §2, §3, §4, §5, §6

[4] = biological target: T4, proteins captured on kinobeads from Jurkat cell lysate (Homo sapiens, UniProt Q16539)
T4 construct: endogenous in cells; host or cells: Jurkat clone E6-1 lysate
Procedure: as §1, §2, §3, §4, §5, §6

[5] = biological target: T5, proteins captured on kinobeads from Jurkat cell lysate (Homo sapiens, UniProt P06241)
T5 construct: endogenous in cells; host or cells: Jurkat clone E6-1 lysate
Procedure: as §1, §2, §3, §4, §5, §6

[6] = biological target: T6, proteins captured on kinobeads from Jurkat cell lysate (Homo sapiens, UniProt P51451)
T6 construct: endogenous in cells; host or cells: Jurkat clone E6-1 lysate
Procedure: as §1, §2, §3, §4, §5, §6

[7] = biological target: T7, proteins captured on kinobeads from Jurkat cell lysate (Homo sapiens, UniProt P15559)
T7 construct: endogenous in cells; host or cells: Jurkat clone E6-1 lysate
Procedure: as §1, §2, §3, §4, §5, §6

[8] = biological target: T8, proteins captured on kinobeads from Jurkat cell lysate (Homo sapiens, UniProt P42684)
T8 construct: endogenous in cells; host or cells: Jurkat clone E6-1 lysate
Procedure: as §1, §2, §3, §4, §5, §6

[9] = biological target: T9, proteins captured on kinobeads from Jurkat cell lysate (Homo sapiens, UniProt Q13131)
T9 construct: endogenous in cells; host or cells: Jurkat clone E6-1 lysate
Procedure: as §1, §2, §3, §4, §5, §6

[10] = biological target: T10, proteins captured on kinobeads from Jurkat cell lysate (Homo sapiens, UniProt P41240)
T10 construct: endogenous in cells; host or cells: Jurkat clone E6-1 lysate
Procedure: as §1, §2, §3, §4, §5, §6

[11] = biological target: T11, proteins captured on kinobeads from Jurkat cell lysate (Homo sapiens, UniProt Q9HCP0)
T11 construct: endogenous in cells; host or cells: Jurkat clone E6-1 lysate
Procedure: as §1, §2, §3, §4, §5, §6

[12] = biological target: T12, proteins captured on kinobeads from Jurkat cell lysate (Homo sapiens, UniProt O14965)
T12 construct: endogenous in cells; host or cells: Jurkat clone E6-1 lysate
Procedure: as §1, §2, §3, §4, §5, §6

[13] = biological target: T13, proteins captured on kinobeads from Jurkat cell lysate (Homo sapiens, UniProt Q13555)
T13 construct: endogenous in cells; host or cells: Jurkat clone E6-1 lysate
Procedure: as §1, §2, §3, §4, §5, §6

[14] = test system: proteins captured on kinobeads from Jurkat cell lysate; parameters: species or system human
Procedure: as §1, §2, §3, §4, §5, §6

[15] = biological target: T14, proteins captured on kinobeads from Jurkat cell lysate (Homo sapiens, UniProt Q9Y478)
T14 construct: endogenous in cells; host or cells: Jurkat clone E6-1 lysate
Procedure: as §1, §2, §3, §4, §5, §6

Question: `Cn1cc(C2=C(c3cn(CCCN)c4ccccc34)C(=O)NC2=O)c2ccccc21` [Bis VIII, Bisindolylmaleimide VIII] was tested. Which “Relative Intensity, NQO2” value ([1]; 0.074 uM in lysate) did it give?
Answer: 0.87

Question: What about the “Relative Intensity, NQO2” value ([1]; 0.67 uM in lysate) of the same compound?
Answer: 0.78

Question: And the “Relative Intensity, AurB (AURKB)” value ([2]; 0.074 uM in lysate)?
Answer: 0.95

Question: And the “Relative Intensity, AurB (AURKB)” value ([2]; 0.67 uM in lysate)?
Answer: 0.97

Question: What about the “Relative Intensity, AAK1” value ([3]; 0.074 uM in lysate) of the same compound?
Answer: 0.82

Question: What about the “Relative Intensity, AAK1” value ([3]; 0.67 uM in lysate) of the same compound?
Answer: 0.75

Question: And the “Relative Intensity, p38a (MAPK14)” value ([4]; 0.074 uM in lysate)?
Answer: 0.82

Question: What about the “Relative Intensity, p38a (MAPK14)” value ([4]; 0.67 uM in lysate) of the same compound?
Answer: 0.93

Question: And the “Relative Intensity, FYN” value ([5]; 0.074 uM in lysate)?
Answer: 0.91

Question: And the “Relative Intensity, FYN” value ([5]; 0.67 uM in lysate)?
Answer: 0.93

Question: And the “Relative Intensity, BLK” value ([6]; 0.074 uM in lysate)?
Answer: 0.90

Question: And the “Relative Intensity, BLK” value ([6]; 0.67 uM in lysate)?
Answer: 0.83

Question: What about the “Relative Intensity, NQO1” value ([7]; 0.074 uM in lysate) of the same compound?
Answer: 0.84

Question: And the “Relative Intensity, NQO1” value ([7]; 0.67 uM in lysate)?
Answer: 0.87

Question: What about the “Relative Intensity, ARG (ABL2)” value ([8]; 0.074 uM in lysate) of the same compound?
Answer: 0.96

Question: What about the “Relative Intensity, ARG (ABL2)” value ([8]; 0.67 uM in lysate) of the same compound?
Answer: 0.91

Question: And the “Relative Intensity, AMPKa1 (PRKAA1)” value ([9]; 0.074 uM in lysate)?
Answer: 0.88

Question: What about the “Relative Intensity, AMPKa1 (PRKAA1)” value ([9]; 0.67 uM in lysate) of the same compound?
Answer: 0.91

Question: What about the “Relative Intensity, CSK” value ([10]; 0.074 uM in lysate) of the same compound?
Answer: 0.84

Question: And the “Relative Intensity, CSK” value ([10]; 0.67 uM in lysate)?
Answer: 0.89

Question: And the “Relative Intensity, CK1g1 (CSNK1G1)” value ([11]; 0.074 uM in lysate)?
Answer: 1.01

Question: And the “Relative Intensity, CK1g1 (CSNK1G1)” value ([11]; 0.67 uM in lysate)?
Answer: 0.96

Question: And the “Relative Intensity, AurA (STK6)” value ([12]; 0.074 uM in lysate)?
Answer: 0.90

Question: What about the “Relative Intensity, AurA (STK6)” value ([12]; 0.67 uM in lysate) of the same compound?
Answer: 0.87

Question: And the “Relative Intensity, CaMK2g” value ([13]; 0.074 uM in lysate)?
Answer: 0.83

Question: What about the “Relative Intensity, CaMK2g” value ([13]; 0.67 uM in lysate) of the same compound?
Answer: 0.88

Question: And the “Relative Intensity, Abl1” value ([14]; 0.074 uM in lysate)?
Answer: 0.81

Question: What about the “Relative Intensity, Abl1” value ([14]; 0.67 uM in lysate) of the same compound?
Answer: 1.03

Question: And the “Relative Intensity, PRKAB1” value ([15]; 0.074 uM in lysate)?
Answer: 0.91

Question: What about the “Relative Intensity, PRKAB1” value ([15]; 0.67 uM in lysate) of the same compound?
Answer: 0.79
